# Assay results reported in patent US20170190705A1, “Compositions and Methods for Inhibiting BMP” (THE BRIGHAM AND WOMAN'S HOSPITAL, INC., priority 2014, published 2017).
# Columns and labels:
# RSK2 = RSK2 (Homo sapiens, UniProt P51812); experiment: Kinome profiling RSK2; assay type: biochemical; conditions: read-out: Inhibitory activity RSK2; for inhibition at 0.1 µM: 100 nM
# Procedure: (§1) . The kinome-wide selectivity was determined following the methods previously reported by Mohedas et al., ACS Chem Biol 2013, 8, 1291-1302 and Sanvitale et al., PLoS One 2013, 8, e62721.
# FER = FER (Homo sapiens, UniProt P16591); experiment: Kinome profiling FER; assay type: biochemical; conditions: read-out: Inhibitory activity FER; for inhibition at 0.1 µM: 100 nM
# Chain of FER (P16591 whole entry): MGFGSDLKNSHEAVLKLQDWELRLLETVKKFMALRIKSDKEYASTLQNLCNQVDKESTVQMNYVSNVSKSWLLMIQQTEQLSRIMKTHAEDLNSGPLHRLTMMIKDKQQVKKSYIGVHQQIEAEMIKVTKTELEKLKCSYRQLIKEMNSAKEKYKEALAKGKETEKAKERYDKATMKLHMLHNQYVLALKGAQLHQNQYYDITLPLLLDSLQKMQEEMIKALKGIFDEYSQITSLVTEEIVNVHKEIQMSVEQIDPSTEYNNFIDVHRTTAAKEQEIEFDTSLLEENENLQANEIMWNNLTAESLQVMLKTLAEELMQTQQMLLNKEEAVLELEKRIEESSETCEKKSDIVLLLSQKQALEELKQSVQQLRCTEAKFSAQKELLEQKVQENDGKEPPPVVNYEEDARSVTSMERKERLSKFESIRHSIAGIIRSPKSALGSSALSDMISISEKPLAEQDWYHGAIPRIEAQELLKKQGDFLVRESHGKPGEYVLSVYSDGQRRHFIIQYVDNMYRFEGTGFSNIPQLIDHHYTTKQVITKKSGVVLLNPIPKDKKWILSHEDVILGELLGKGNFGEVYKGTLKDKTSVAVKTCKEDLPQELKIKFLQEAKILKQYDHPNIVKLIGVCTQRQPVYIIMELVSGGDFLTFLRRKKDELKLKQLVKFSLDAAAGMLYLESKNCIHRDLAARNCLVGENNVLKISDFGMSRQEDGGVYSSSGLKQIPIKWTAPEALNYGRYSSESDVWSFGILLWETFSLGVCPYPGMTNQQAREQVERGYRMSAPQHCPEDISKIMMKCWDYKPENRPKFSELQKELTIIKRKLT
# Procedure: as §1
# AURORA-C = target: T1, AURORA-C (Homo sapiens, UniProt Q9UQB9); experiment: Kinome profiling AURORA-C; assay type: biochemical; conditions: read-out: Inhibitory activity AURORA-C; for inhibition at 0.1 µM: 100 nM
# T1 sequence (Q9UQB9 1-309): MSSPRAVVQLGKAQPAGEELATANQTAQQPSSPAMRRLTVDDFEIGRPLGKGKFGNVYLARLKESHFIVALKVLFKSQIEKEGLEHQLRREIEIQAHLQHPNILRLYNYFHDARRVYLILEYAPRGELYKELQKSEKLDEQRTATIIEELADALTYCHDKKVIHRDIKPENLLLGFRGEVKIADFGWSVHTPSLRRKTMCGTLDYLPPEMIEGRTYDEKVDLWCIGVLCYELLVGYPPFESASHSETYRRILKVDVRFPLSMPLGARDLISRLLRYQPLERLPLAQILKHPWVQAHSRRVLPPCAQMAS
# Procedure: as §1
# ITK = target: T2, ITK (Homo sapiens, UniProt Q08881); experiment: Kinome profiling ITK; assay type: biochemical; conditions: read-out: Inhibitory activity ITK; for inhibition at 0.1 µM: 100 nM
# T2 sequence (Q08881 1-620): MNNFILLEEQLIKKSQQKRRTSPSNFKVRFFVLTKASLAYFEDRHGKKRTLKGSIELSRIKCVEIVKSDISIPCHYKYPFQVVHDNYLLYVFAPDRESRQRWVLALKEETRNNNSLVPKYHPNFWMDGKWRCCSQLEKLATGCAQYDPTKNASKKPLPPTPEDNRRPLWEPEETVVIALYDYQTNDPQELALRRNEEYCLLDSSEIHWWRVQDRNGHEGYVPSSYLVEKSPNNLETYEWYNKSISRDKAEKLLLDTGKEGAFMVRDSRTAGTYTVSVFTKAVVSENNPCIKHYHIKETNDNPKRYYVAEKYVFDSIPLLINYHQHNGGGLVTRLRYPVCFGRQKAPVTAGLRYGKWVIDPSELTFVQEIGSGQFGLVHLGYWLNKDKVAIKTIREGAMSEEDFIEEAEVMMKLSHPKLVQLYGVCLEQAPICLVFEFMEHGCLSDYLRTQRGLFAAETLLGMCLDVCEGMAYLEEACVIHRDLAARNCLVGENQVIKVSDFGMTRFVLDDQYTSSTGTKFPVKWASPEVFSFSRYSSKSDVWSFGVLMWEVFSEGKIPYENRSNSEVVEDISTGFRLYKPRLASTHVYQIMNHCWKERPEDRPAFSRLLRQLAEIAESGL
# Procedure: as §1
# caALK4 = target: T3, caALK4 (Homo sapiens, UniProt P36896); experiment: Luciferase reporter assay constitutively active ALK4; conditions: read-out: Cell Based Assay caALK4 IC50
# T3 sequence (P36896 1-505 T206D): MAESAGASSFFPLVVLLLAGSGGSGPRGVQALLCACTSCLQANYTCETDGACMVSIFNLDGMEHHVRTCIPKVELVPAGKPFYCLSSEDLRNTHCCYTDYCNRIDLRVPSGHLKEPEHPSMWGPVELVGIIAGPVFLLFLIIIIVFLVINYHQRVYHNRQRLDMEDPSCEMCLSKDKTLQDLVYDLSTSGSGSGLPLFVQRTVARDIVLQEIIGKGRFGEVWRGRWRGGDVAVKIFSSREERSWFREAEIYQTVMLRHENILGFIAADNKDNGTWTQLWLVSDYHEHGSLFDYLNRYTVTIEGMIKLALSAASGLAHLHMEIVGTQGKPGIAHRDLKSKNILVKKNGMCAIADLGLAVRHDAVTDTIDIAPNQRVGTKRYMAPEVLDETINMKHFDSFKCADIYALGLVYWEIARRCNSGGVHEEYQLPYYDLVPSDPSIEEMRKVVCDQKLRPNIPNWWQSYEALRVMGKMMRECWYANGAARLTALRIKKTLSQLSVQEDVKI
# Excerpt: C2Cl2 […] cells stably transfected with BMP responsive element from the Id promoter fused to luciferase reporter gene (BRE-Luc) were generously provided by Dr. Peter ten Dijke (Leiden University Medical Center, NL) following the methods described by Zilberberg et al., BMC cell biology 2007, 8, 41-50. Human embryonic kidney 293T cells stably transfected with the TGF-β responsive element from the PAI-1 promoter fused to luciferase reporter gene (CAGA-Luc) were generously provided by Dr. Howard Weiner (Brigham and Women's Hospital, Boston, Mass.) following the methods described by Oida et al., PloS one 2011, 6, e18365. C2Cl2 Bre-Luc and 293T CAGA-Luc cells were seeded in DMEM supplemented with 2% FBS at 20,000 cells per well in tissue culture treated 96-well plates (Costar® 3610; Corning). The cells were incubated for 1 h (37° C. and 10% CO2) and allowed to settle and attach. Compounds of interest or DMSO were diluted in DMEM and added at final compound concentrations of 1 nM to 10 μM. Cells were then incubated for 30 min. Adenovirus expressing constitutively active BMP and TGF-β type I receptors (Ad.caALK1-5), generously provided by Dr. Akiko Hata (University of to California at San Francisco), were added to achieve a multiplicity of infection (MOI) of 100. Plates were incubated overnight at 37° C. Cell viability was assayed with an MIT (3-(4,5-dimethylthiazol-2-yl)-2,5-diphenyl tetrazolium bromide) colorimetric assay (Promega) per the manufacturer's instructions. Media was discarded, and firefly luciferase activity was measured (Promega) according to manufacturer's protocol. Light output was measured using a Spectramax L luminometer (Molecular Devices) with an integration time of one second per well. Data was normalized to 100% of incremental BRE-Luc activity due to adenoviruses specifying caALK1, 2, or 3, or the incremental CAGA-Luc activity due to adenoviruses specifying caALK4 or 5.
# Chain of RSK2 (P51812 whole entry): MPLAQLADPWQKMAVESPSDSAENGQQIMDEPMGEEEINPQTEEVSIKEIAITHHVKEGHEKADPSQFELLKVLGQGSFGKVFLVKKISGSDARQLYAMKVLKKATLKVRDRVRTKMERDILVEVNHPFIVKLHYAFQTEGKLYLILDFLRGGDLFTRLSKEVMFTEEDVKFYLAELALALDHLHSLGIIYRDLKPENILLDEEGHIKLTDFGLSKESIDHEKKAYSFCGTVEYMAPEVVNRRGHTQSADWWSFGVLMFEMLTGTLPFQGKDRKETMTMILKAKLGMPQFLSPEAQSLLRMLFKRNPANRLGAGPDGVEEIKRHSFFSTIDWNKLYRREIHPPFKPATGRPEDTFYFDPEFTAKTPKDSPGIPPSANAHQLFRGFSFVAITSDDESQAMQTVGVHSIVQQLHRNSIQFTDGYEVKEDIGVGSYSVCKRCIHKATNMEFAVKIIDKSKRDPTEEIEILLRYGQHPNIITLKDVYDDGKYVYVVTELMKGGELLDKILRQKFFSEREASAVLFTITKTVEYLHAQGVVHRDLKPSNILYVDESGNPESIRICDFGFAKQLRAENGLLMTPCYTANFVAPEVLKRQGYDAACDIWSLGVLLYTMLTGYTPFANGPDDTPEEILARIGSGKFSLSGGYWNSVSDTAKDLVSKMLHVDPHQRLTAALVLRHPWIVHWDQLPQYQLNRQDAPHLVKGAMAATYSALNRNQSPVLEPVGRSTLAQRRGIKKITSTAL
smiles,measurement,setting,value
"COc1cc(-c2cc(-c3ccc(N4CCNCC4)cc3)cnc2N)cc(OC)c1OC [Compound 15, 5-(4-(piperazin-1-yl)phenyl)-3-(3,4,5-trimethoxyphenyl)pyridin-2-amine]",inhibition at 0.1 µM,RSK2,0%
same,inhibition at 1 µM,RSK2,4%
same,inhibition at 0.1 µM,FER,0%
same,inhibition at 1 µM,FER,6%
same,inhibition at 0.1 µM,AURORA-C,3%
same,inhibition at 1 µM,AURORA-C,7%
same,inhibition at 0.1 µM,ITK,0%
same,inhibition at 1 µM,ITK,2%
same,IC50,caALK4,0.025 µM
"COc1cc(-c2cc(-c3ccc(N4CCNCC4)cc3)cnc2C)cc(OC)c1OC [Compound 10, 1-(4-(6-methyl-5-(3,4,5-trimethoxyphenyl)pyridin-3-yl)phenyl)piperazine]",inhibition at 0.1 µM,RSK2,1%
same,inhibition at 1 µM,RSK2,1%
same,inhibition at 0.1 µM,FER,3%
same,inhibition at 1 µM,FER,3%
same,inhibition at 0.1 µM,AURORA-C,1%
same,inhibition at 1 µM,AURORA-C,1%
same,inhibition at 0.1 µM,ITK,0%
same,inhibition at 1 µM,ITK,-1%
same,IC50,caALK4,5.53 µM
